System: SK-MEL-28 melanoma cells
Test: Apoptosis assay (cell death detection ELISA) with or without site markers
Format: cell-based, human
Conditions: SK-MEL-28, 10 µM, alone
Source text: Serum is commonly used as a supplement in cell culture media. It supports cell growth and product formation by providing a broad spectrum of macromolecules, attachment factors, nutrients, and hormone and growth factors. The most commonly used animal serum supplement is foetal bovine serum, FBS (alternatively called foetal calf serum—FCS). Because BSA is a major component of FBS, the in vitro activity of catechins on tumour cells might be affected by their interaction with BSA. The effect of albumin binding on the biological activity of polyphenols is unclear. Does the bound ligand have some biological activity or does the polyphenol have to be in the free form to be active? To answer this question and to determine whether BSA-catechin interactions increase or decrease catechin anti-tumour activity, the proapoptotic activity of TMCG on SK-MEL-28 melanoma cells was probed in the presence of warfarin or ibuprofen [Figure 5(b)]. […] Because the binding of catechins to BSA seems to control drug availability, the lower affinity of TMCG and TMECG for serum albumins, with respect to natural tea catechins, might contribute to the high in vivo anti-tumour activity of these methylated synthetic catechins. […]
The human melanoma cell line SK-MEL-28 was obtained from American Type Culture Collection (ATCC, Manassas, VA, USA) and was maintained in Eagles’s Minimum Essential Medium (EMEM) supplemented with 10% (v/v) FBS and antibiotics at 37 °C in a humidified atmosphere containing 7.5% CO2. Cell viability was evaluated using the MTT cell proliferation assay. Cells were evaluated for apoptosis using a cell death detection ELISA (Cell Death Detection ELISAPLUS, Roche Diagnostics, Barcelona, Spain). […] The amount of nucleosomes is photometrically quantified at 405 nm by the peroxidase activity retained in the immunocomplexes. Apoptosis was defined as the specific enrichment of mono- and oligonucleosomes in the cytoplasm and was calculated by dividing the absorbance of treated samples with the absorbance of untreated samples after correcting for the number of cells. […]

SMILES	Induction of apoptosis, compound alone
CC(=O)CC(c1ccccc1)c1c(O)c2ccccc2oc1=O (centres unmarked) [warfarin, reference compound]	did not induce apoptosis
CC(C)Cc1ccc(C(C)C(=O)O)cc1 (centres unmarked) [ibuprofen, reference compound]	did not induce apoptosis

From paper PMC6270263, “Factors Influencing the Antifolate Activity of Synthetic Tea-Derived Catechins” (Molecules, 2013)
